Experimental data reported in patent US20060257484A1, “Combination of tramadol and substances that comprise gabapentin” (priority 2005, published 2006).
Where a name gives a salt, the structure may show the parent alone. Read-outs that look alike come from different tables or passages of the source.

Assays:
[1] = Expected pharmacokinetic parameters in rat after tramadol HCl plus gabapentin (model)
From the text: In another modeling approach, the dose of gabapentin for humans can be evaluated in order to match the AUCinf ratio for gabapentin to tramadol and O-demthyltramadol in rat.

[2] = cited from earlier work
[3] = Expected human pharmacokinetic parameters at 200 mg tramadol per day (model matching rat AUCinf ratio); format: in vivo; details: 200 mg tramadol per day for humans; for expected Cavg: gabapentin at 6.77 fold AUC ratio (daily dose 505 mg gabapentin equivalent)
From the text: Additional ranges can be determined for other species.

[4] = single oral dose 10 mg/kg tramadol HCl, 8 male Sprague-Dawley rats, cited from earlier work
[5] = steady state, cited from earlier work
Chung model = Chung model disclosed in Codd; cited from earlier work
[6] = single oral dose 25 mg/kg gabapentin, 6 male Sprague-Dawley rats; cited from earlier work
[7] = higher doses increase less than expected; cited from earlier work
[8] = single administration of 10 mg/kg tramadol HCl and 5 mg/kg gabapentin, assuming no pharmacokinetic interaction
[9] = after five days of tramadol 100 mg twice daily
[10] = Immediate Release Capsule, 50 mg four times daily
[11] = Modified Release Formulation, 200 mg once daily

SMILES	expected Cmax [3]	expected Cmin [3]	expected Cavg [3]	AUC0-24 [5, 10]	Cmax [5, 10]	Cmin [5, 10]	AUC0-24 [5, 11]	Cmax [5, 11]	Cmin [5, 11]	further results
CN(C)CC1CCCCC1(O)c1cccc(O)c1 (racemic) [(±) M1, trans-O-demethyltramadol]	–	–	–	–	–	–	–	–	–	expected AUCinf [1, 8]: 523 ng·h/mL; expected Cmax [1, 8]: 331 ng/mL
COc1cccc(C2(O)CCCCC2CN(C)C)c1 (racemic) [tramadol]	–	–	–	–	–	–	–	–	–	AUC0-12 at steady state [2, 9]: 2970 ng·h/mL; Cmax at steady state [2, 9]: 414 ng/mL; Cmax and AUCinf versus dose ([2]; tramadol 400 mg given): proportional to the dose
CN(C)CC1CCCCC1(O)c1cccc(O)c1 (single isomer, unassigned; (+)) [(+) M1, trans-O-demethyltramadol]	36 ng/mL	21 ng/mL	11 ng/mL	644 ng·h/mL	36 ng/mL	21 ng/mL	704.12 (327.09) ng * h/ml	42 (18.4) ng/mL	16.71 (10.41) ng/mL	AUCinf ([4]; 10 mg/kg): 16242 (2648) μg L^−1 min; Cmax ([4]; 10 mg/kg): 136 (32) μg/L; Tmax ([4]; 10 mg/kg): 34 (21) min
CN(C)CC1CCCCC1(O)c1cccc(O)c1 (single isomer, unassigned; (-)) [(−) M1, trans-O-demethyltramadol]	43 ng/mL	22 ng/mL	12 ng/mL	690 ng·h/mL	43 ng/mL	22 ng/mL	745 (286) ng * h/ml	46 (18) ng/mL	16 (8) ng/mL	AUCinf ([4]; 10 mg/kg): 21178 (1987) μg L^−1 min; Cmax ([4]; 10 mg/kg): 195 (63) μg/L; Tmax ([4]; 10 mg/kg): 41 (24) min
COc1cccc(C2(O)CCCCC2CN(C)C)c1 (single isomer, unassigned; (-)) [(−)-trans-T]	157 ng/mL	86 ng/mL	113 ng/mL	2719 ng·h/mL	157 ng/mL	86 ng/mL	3005 (1120) ng * h/ml	199 (75) ng/mL	62 (30) ng/mL	AUCinf [4]: 5257 µg·min/L; Cmax [4]: 74 µg/L; Tmax [4]: 22 min
COc1cccc([C@@]2(O)CCCC[C@@H]2CN(C)C)c1 [(+)-trans-T]	190 ng/mL	111 ng/mL	143 ng/mL	3429 ng·h/mL	190 ng/mL	111 ng/mL	3763 (1275) ng * h/ml	239 (81) ng/mL	81 (36) ng/mL	AUCinf [4]: 21501 µg·min/L; Cmax [4]: 193 µg/L; Tmax [4]: 22 min
NCC1(CC(=O)O)CCCCC1 [Gabapentin, gabapentin]	–	–	1890 ng/mL	–	–	–	–	–	–	AUCinf for gabapentin relative to that for (±) tramadol and (±) O-demthyltramadol ([1]; Chung model (rat)): 6.77 fold; ED50 (Chung model): 439.50 mg/kg; AUCinf [6]: 32800 ng·h/mL; Cmax [6]: 6850 ng/mL; Tmax [6]: 108 min; dose up to which serum concentrations increase linearly [7]: up to 1800 mg/d
COc1cccc(C2(O)CCCCC2CN(C)C)c1 (stereo not shown) [tramadol HCl]	–	–	–	–	–	–	–	–	–	ED50 (Chung model): 94.47 mg/kg
